#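 Five compound concentrations were applied to cells in 96-well plates for 48 hours; endpoints were derived by simple linear interpolation of the resulting dose-response curve. The concentration for 50% growth inhibition is given as GI50.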 Active and inactive are the calls of the source. No stated cut-off is given here; in the data, active = GI50 up to about 1.1 µM and inactive = higher.
# Experiments:
# Assay in all cases: NCI-60 cell line screen, 48 h
# 786-0 = test system: 786-0
# A498 = test system: A498
# A549 = test system: A549
# ACHN = test system: ACHN
# CAKI-1 = test system: CAKI-1
# CCRF-CEM = test system: CCRF-CEM
# COLO 205 = test system: COLO 205
# DU-145 = test system: DU-145
# EKVX = test system: EKVX
# HCC 2998 = test system: HCC 2998
# HCT-116 = test system: HCT-116
# HCT-15 = test system: HCT-15
# HL-60 = test system: HL-60
# HOP-62 = test system: HOP-62
# HT-29 = test system: HT-29
# Hs-578T = test system: Hs-578T
# IGROV-1 = test system: IGROV-1
# K562 = test system: K562
# M14 = test system: M14
# MCF7 = test system: MCF7
# MDA-MB-231 = test system: MDA-MB-231
# MDA-MB-435 = test system: MDA-MB-435
# MDA-N = test system: MDA-N
# MOLT-4 = test system: MOLT-4
# Malme-3M = test system: Malme-3M
# NCI-H226 = test system: NCI-H226
# NCI-H23 = test system: NCI-H23
# NCI-H460 = test system: NCI-H460
# NCI-H522 = test system: NCI-H522
# NCI/ADR-RES = test system: NCI/ADR-RES
# OVCAR-3 = test system: OVCAR-3
# OVCAR-4 = test system: OVCAR-4
# OVCAR-5 = test system: OVCAR-5
# OVCAR-8 = test system: OVCAR-8
# PC-3 = test system: PC-3
# RPMI-8226 = test system: RPMI-8226
# RXF 393 = test system: RXF 393
# SF-268 = test system: SF-268
# SF-295 = test system: SF-295
# SF-539 = test system: SF-539
# SK-MEL-28 = test system: SK-MEL-28
# SK-MEL-2 = test system: SK-MEL-2
# SK-MEL-5 = test system: SK-MEL-5
# SK-OV-3 = test system: SK-OV-3
# SN12C = test system: SN12C
# SNB-19 = test system: SNB-19
# SNB-75 = test system: SNB-75
# SR = test system: SR
# SW-620 = test system: SW-620
# T47D = test system: T47D
# TK-10 = test system: TK-10
# U-251 = test system: U-251
# UACC-257 = test system: UACC-257
# UACC-62 = test system: UACC-62
# UO-31 = test system: UO-31
# HOP-92 = test system: HOP-92
# KM12 = test system: KM12
# LOX IMVI = test system: LOX IMVI
compound,measurement,setting,value
N#Cc1nn(C2OC(COC(=O)c3ccccc3)C(OC(=O)c3ccccc3)C2OC(=O)c2ccccc2)c2nc[nH]c(=O)c12 (configuration not stated),GI50,786-0,35.9 µM (inactive)
same,GI50,A498,11.4 µM (inactive)
same,GI50,A549,39.6 µM (inactive)
same,GI50,ACHN,44.3 µM (inactive)
same,GI50,CAKI-1,38.5 µM (inactive)
same,GI50,CCRF-CEM,18.5 µM (inactive)
same,GI50,COLO 205,27.4 µM (inactive)
same,GI50,DU-145,42.7 µM (inactive)
same,GI50,EKVX,55.7 µM (inactive)
same,GI50,HCC 2998,78.2 µM (inactive)
same,GI50,HCT-116,28.8 µM (inactive)
same,GI50,HCT-15,40.1 µM
same,GI50,HL-60,34 µM (inactive)
same,GI50,HOP-62,90.2 µM (inactive)
same,GI50,HT-29,36.2 µM (inactive)
same,GI50,Hs-578T,80.9 µM (inactive)
same,GI50,IGROV-1,42.7 µM (inactive)
same,GI50,K562,35.7 µM (inactive)
same,GI50,M14,46.1 µM (inactive)
same,GI50,MCF7,93.5 µM (inactive)
same,GI50,MDA-MB-231,58.3 µM (inactive)
same,GI50,MDA-MB-435,46.2 µM (inactive)
same,GI50,MDA-N,49.2 µM (inactive)
same,GI50,MOLT-4,36.6 µM (inactive)
same,GI50,Malme-3M,36.1 µM (inactive)
same,GI50,NCI-H226,> 100 µM (inactive)
same,GI50,NCI-H23,24.4 µM (inactive)
same,GI50,NCI-H460,30.4 µM (inactive)
same,GI50,NCI-H522,36.9 µM (inactive)
same,GI50,NCI/ADR-RES,66.4 µM (inactive)
same,GI50,OVCAR-3,46 µM (inactive)
same,GI50,OVCAR-4,38.3 µM (inactive)
same,GI50,OVCAR-5,> 100 µM (inactive)
same,GI50,OVCAR-8,27.8 µM (inactive)
same,GI50,PC-3,45.4 µM (inactive)
same,GI50,RPMI-8226,39.4 µM (inactive)
same,GI50,RXF 393,36.4 µM (inactive)
same,GI50,SF-268,43.1 µM (inactive)
same,GI50,SF-295,46.5 µM (inactive)
same,GI50,SF-539,68.4 µM (inactive)
same,GI50,SK-MEL-28,44.1 µM (inactive)
same,GI50,SK-MEL-2,85.5 µM (inactive)
same,GI50,SK-MEL-5,25.6 µM (inactive)
same,GI50,SK-OV-3,5.57 µM (inactive)
same,GI50,SN12C,77.4 µM (inactive)
same,GI50,SNB-19,72.8 µM (inactive)
same,GI50,SNB-75,76 µM (inactive)
same,GI50,SR,30.9 µM (inactive)
same,GI50,SW-620,63.1 µM (inactive)
same,GI50,T47D,46.2 µM (inactive)
same,GI50,TK-10,> 100 µM (inactive)
same,GI50,U-251,62.5 µM (inactive)
same,GI50,UACC-257,> 100 µM (inactive)
same,GI50,UACC-62,> 100 µM (inactive)
same,GI50,UO-31,56.2 µM (inactive)
COC(=O)[C@@H]1CN(C(=O)CCc2ccccc2)C(=O)N1C(=O)OCc1ccccc1,GI50,786-0,> 100 µM (inactive)
same,GI50,A498,> 100 µM (inactive)
same,GI50,A549,> 100 µM (inactive)
same,GI50,ACHN,> 100 µM (inactive)
same,GI50,CAKI-1,> 100 µM (inactive)
same,GI50,CCRF-CEM,> 100 µM (inactive)
same,GI50,COLO 205,> 100 µM (inactive)
same,GI50,DU-145,> 100 µM (inactive)
same,GI50,EKVX,> 100 µM (inactive)
same,GI50,HCC 2998,> 100 µM (inactive)
same,GI50,HCT-116,> 100 µM (inactive)
same,GI50,HCT-15,> 100 µM
same,GI50,HL-60,> 100 µM (inactive)
same,GI50,HOP-62,> 100 µM (inactive)
same,GI50,HOP-92,> 100 µM (inactive)
same,GI50,HT-29,> 100 µM (inactive)
same,GI50,Hs-578T,57.1 µM (inactive)
same,GI50,IGROV-1,> 100 µM (inactive)
same,GI50,K562,> 100 µM (inactive)
same,GI50,KM12,> 100 µM (inactive)
same,GI50,LOX IMVI,> 100 µM (inactive)
same,GI50,M14,> 100 µM (inactive)
same,GI50,MCF7,> 100 µM (inactive)
same,GI50,MDA-MB-231,> 100 µM (inactive)
same,GI50,MDA-MB-435,> 100 µM (inactive)
same,GI50,MDA-N,> 100 µM (inactive)
same,GI50,MOLT-4,> 100 µM (inactive)
same,GI50,Malme-3M,> 100 µM (inactive)
same,GI50,NCI-H226,> 100 µM (inactive)
same,GI50,NCI-H23,> 100 µM (inactive)
same,GI50,NCI-H460,59.4 µM (inactive)
same,GI50,NCI-H522,> 100 µM (inactive)
same,GI50,NCI/ADR-RES,> 100 µM (inactive)
same,GI50,OVCAR-3,> 100 µM (inactive)
same,GI50,OVCAR-4,> 100 µM (inactive)
same,GI50,OVCAR-5,> 100 µM (inactive)
same,GI50,OVCAR-8,> 100 µM (inactive)
same,GI50,RPMI-8226,> 100 µM (inactive)
same,GI50,RXF 393,> 100 µM (inactive)
same,GI50,SF-268,40 µM (inactive)
same,GI50,SF-295,> 100 µM (inactive)
same,GI50,SF-539,> 100 µM (inactive)
same,GI50,SK-MEL-28,> 100 µM (inactive)
same,GI50,SK-MEL-2,> 100 µM (inactive)
same,GI50,SK-MEL-5,> 100 µM (inactive)
same,GI50,SK-OV-3,> 100 µM (inactive)
same,GI50,SN12C,> 100 µM (inactive)
same,GI50,SNB-19,> 100 µM (inactive)
same,GI50,SNB-75,> 100 µM (inactive)
same,GI50,SR,> 100 µM (inactive)
same,GI50,SW-620,> 100 µM (inactive)
same,GI50,T47D,38.5 µM (inactive)
same,GI50,TK-10,> 100 µM (inactive)
same,GI50,U-251,> 100 µM (inactive)
same,GI50,UACC-257,> 100 µM (inactive)
same,GI50,UACC-62,> 100 µM (inactive)
same,GI50,UO-31,> 100 µM (inactive)

# From ChEMBL document CHEMBL1201862, “PubChem BioAssay data set” (2004)
